Data published in US6544983B2, “Diazepinoindoles for the treatment of chronic obstructive pulmonary disease” (Pfizer Inc, priority 2000, dated 2003).
Read-outs that look alike come from different tables or passages of the source.

Key:
[1] = system: LPS-induced TNFα release in whole blood; assay: Inhibition of in vitro LPS-induced TNFα production in whole blood of COPD patients; assay type: cell-based; settings: Homo sapiens; whole blood of COPD patients (n=7), LPS 50 μg/ml, 22-24 h at 37° C., ELISA
Text: The aim of this study was to compare the in vitro activities of three selective PDE4 inhibitors (compound 1, rolipram which is 4-[3-(cyclopentyloxy)-4-methoxy-phenyl]-2-pyrrolidinone, and cilomilast) at reducing lipopolysaccharide (LPS)-induced TNFα release in whole blood of COPD patients. Thirteen COPD patients, diagnosed according to the ATS guidelines^iv, were included in this study to determine the concentration-effect of LPS on TNF^α production (n=6) and the IC50 values of compound 1, rolipram and cilomilast (n=7).
Blood (15 ml/patient) was collected in heparin tubes and distributed in 96-well microplates (250 μl/well).
After a 30-min incubation at 37° C., 25 μl of increasing concentrations of the compound to test or vehicle were added in different wells. The microplates were incubated at 37° C. for 30 min, and then 25 μl of LPS (E. coli) at 50 μg/ml (stimulated wells) or 25 μl of sterile saline (unstimulated wells) were added. The microplates were incubated 22-24 h at 37° C.
125 μl of the supernatant plasma were transferred gently in sterile 96-well microplates and stored at −80° C. until TNFα assay. The TNFα production was then measured by an ELISA assay.

[2] = in humans; Torphy et al. 1999; cited from earlier work
[3] = system: LPS-induced lung neutrophilia; assay: Neutrophilia induced by LPS aerosol in the Wistar rat; assay type: in vivo; settings: Wistar rats, oral
Description: (§1) The model retained to assess the usefulness of the compounds of the invention for the treatment of COPD was a neutrophilia model. Neutrophilia was induced by exposure of rats or mice to a lipopolysaccharide (LPS) aerosol.
The animals were treated with compound 1 or cilomilast when conscious, that was by the oral route.
One hour after the treatment, the rats were placed in a plexiglass box and were given a 200 μg/ml aerosol of LPS (Escherichia coli, serotype O55:B5) for 1 hour. Control rats were not given the LPS aerosol. This control is called ‘sham’ in FIGS. 1 and 2.
Two hours after the exposure to the LPS, the animals were then anaesthetised by intraperitoneal injection of 6% sodium pentobarbital at a rate of 1 ml/kg. A tracheotomy was carried out and a tracheal cannula was inserted.
Using a 5-ml syringe, 3 consecutive washings were carried out with a 5-ml volume of a […] NaCl+EDTA solution (37° C.), in order to recover the cell population present in the lumen of the airways. The fluid which had thus been withdrawn was stored at +4° C. on ice.

[4] = single dose of 20 mg; Murdoch et al. 1998; cited from earlier work
[5] = Half-life in humans after single oral doses to healthy volunteers; settings: human, in vivo, single oral doses 1 to 25 mg
Text: Such values indicate that compound 1 may be administered once daily.

[6] = system: LPS-induced lung neutrophilia; assay: Neutrophilia induced by LPS aerosol in the C57 bl/6 mouse; assay type: in vivo; settings: oral route, 1 h before LPS aerosol 100 μg/ml; bronchoalveolar washings 24 h after exposure
Description: as §1
The animals were treated with compound 1 when conscious, that was by the oral route.
One hour after treatment, the mice were placed in a plexiglass box (at most 25 mice to a box) and were given a 100 μg/ml aerosol of LPS (Escherichia coli, serotype O55:B5) for 1 hour. Control mice were not given the LPS aerosol.
Twenty-four hours after the exposure to the LPS, the animals were then anaesthetised by an intraperitoneal injection of 0.6% sodium pentobarbital at a rate of 15 ml/kg. A tracheotomy was carried out and a tracheal cannula was inserted. […]
The cells contained in the bronchoalveolar washing fluid were counted using a Coulter particle counter. […]
The arithmetic mean and the standard deviation (SD) of the number of neutrophils in the bronchoalveolar washing fluids were calculated for each treatment group. The percentage inhibition was calculated in the following manner: [formula] […]
The 90% confidence interval for the percentage inhibition was to be calculated by the “Delta method” or “Fieller method” ^i, ii & iii (Armitage & al, 1998; Feuerstein & al, 1997; Hubert & al, 1988) if appropriate.

IC50 [1] [nM]	Structure (SMILES)	elimination half-life [2]	percentage of inhibition of the LPS-induced lung neutrophilia ([3]; 30 mg/kg) [%]	side effects [4]	half-life ([5]; read-out: mean terminal half-life values, range over doses) [h]	half-life ([5]; read-out: terminal half-life, mean over all doses (converted)) [h]	inhibition of the LPS-induced lung neutrophilia in mice [6]	efficiency relative to cilomilast at the same dose ([3]; 10 mg/kg)	percentage of inhibition of the LPS-induced lung neutrophilia ([3]; 10 mg/kg) [%]
> 10000	COc1ccc([C@]2(C#N)CC[C@@H](C(=O)O)CC2)cc1OC1CCCC1 [cilomilast, cis-4-cyano-4-[3-(cyclopentyloxy)-4-methoxyphenyl]cyclohexane carboxylic acid]	approximately 8 hours	74	relevant side effects such as nausea and vomiting occurred	–	–	–	–	–
2800 ± 900	COc1ccc(C2CNC(=O)C2)cc1OC1CCCC1 (stereo not drawn) [rolipram, 4-[3-(cyclopentyloxy)-4-methoxy-phenyl]-2-pyrrolidinone]	–	–	–	–	–	–	–	–

Structure (SMILES)	IC50 [1] [nM]	elimination half-life [2]	percentage of inhibition of the LPS-induced lung neutrophilia ([3]; 30 mg/kg) [%]	side effects [4]	half-life ([5]; read-out: mean terminal half-life values, range over doses) [h]	half-life ([5]; read-out: terminal half-life, mean over all doses (converted)) [h]	inhibition of the LPS-induced lung neutrophilia in mice [6]	efficiency relative to cilomilast at the same dose ([3]; 10 mg/kg)	percentage of inhibition of the LPS-induced lung neutrophilia ([3]; 10 mg/kg) [%]
Nc1cc2c3c(c1)C(c1ccccc1)=N[C@@H](NC(=O)c1cccnc1)C(=O)N3CC2 [compound 1, (3R)N-(9-amino-4-oxo-1-phenyl-3,4,6,7-tetrahydro-[1,4]diazepino[6,7,1-hi]indol-3-yl)-nicotinamide]	1300 ± 700	–	80	–	13.9 to 17.1	15.4	strongly inhibited	twice more efficient than cilomilast	74
